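Results reflect a 48-hour exposure of cells in 96-well plates to compound at five concentrations. At the TGI there is no net growth.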
Columns and labels:
Assay in all cases: NCI-60 cell line screen, 48 h
[1] = test system: A498 renal
[2] = test system: A549 NSCLC
[3] = test system: ACHN renal
[4] = test system: CCRF-CEM leukemia
[5] = test system: COLO 205 colon
[6] = test system: DU-145 prostate
[7] = test system: HCC-2998 colon
[8] = test system: HCT-116 colon
[9] = test system: HOP-92 NSCLC
[10] = test system: HS 578T breast
[11] = test system: HT29 colon
[12] = test system: K-562 leukemia
[13] = test system: KM12 colon
[14] = test system: LOX IMVI melanoma
[15] = test system: MCF7 breast
[16] = test system: MDA-N
[17] = test system: MOLT-4 leukemia
[18] = test system: NCI-H226 lung
[19] = test system: NCI-H460 lung
[20] = test system: NCI-H522 lung
[21] = test system: NCI/ADR-RES ovarian
[22] = test system: OVCAR-4 ovarian
[23] = test system: OVCAR-8 ovarian
[24] = test system: PC-3 prostate
[25] = test system: RXF 393 renal
[26] = test system: SF-268 CNS
[27] = test system: SF-295 CNS
[28] = test system: SK-MEL-28 melanoma
[29] = test system: SK-MEL-5 melanoma
[30] = test system: SK-OV-3 ovarian
[31] = test system: SN12C renal
[32] = test system: SNB-19 CNS
[33] = test system: SNB-75 CNS
[34] = test system: SR leukemia
[35] = test system: SW-620 colon
[36] = test system: TK-10 renal
[37] = test system: UACC-257 melanoma
[38] = test system: UO-31 renal
[39] = test system: 786-0 renal
[40] = test system: BT-549 breast
[41] = test system: CAKI-1 renal
[42] = test system: EKVX NSCLC
[43] = test system: HCT-15 colon
[44] = test system: HL-60(TB) leukemia
[45] = test system: HOP-62 NSCLC
[46] = test system: IGROV1 ovarian
[47] = test system: M14 melanoma
[48] = test system: MALME-3M melanoma
[49] = test system: MDA-MB-231 breast
[50] = test system: MDA-MB-435
[51] = test system: NCI-H23 lung
[52] = test system: OVCAR-3 ovarian
[53] = test system: OVCAR-5 ovarian
[54] = test system: RPMI-8226 leukemia
[55] = test system: SF-539 CNS
[56] = test system: T-47D breast
[57] = test system: U251 CNS
[58] = test system: UACC-62 melanoma

Measured: TGI

Cc1ccc(S(=O)(=O)NCCSCCSCCNS(=O)(=O)c2ccc(C)cc2)cc1
18 µM: [29]
68.7 µM: [33]
41.2 µM: [5]
91.6 µM: [1]
not listed: [39] | [40] | [41] | [42] | [43] | [44] | [45] | [46] | [47] | [48] | [49] | [50] | [51] | [52] | [53] | [54] | [55] | [56] | [57] | [58]
> 100 µM: all other assays above

CN(C)c1ccc(N=Nc2ccncc2)cc1
98.6 µM: [9]
92.6 µM: [7]
not listed: [20] | [33] | [34]
> 100 µM: all other assays above
